Test results from patent US8940756B2, “Dihydronaphthyridines and related compounds useful as kinase inhibitors for the treatment of proliferative diseases” (Deciphera Pharmaceuticals, Inc., priority 2012, dated 2015).

Assays:
[1] = target: T1, c-KIT kinase (Seq ID no. 1) (Homo sapiens, UniProt P10721); assay: c-KIT Kinase Assay (pyruvate kinase/lactate dehydrogenase coupled); assay type: biochemical; conditions: enzymatic assay, ATP 200 μM; read-out: KIT (wt)
T1 construct: GST (N); TEV cleavage site (N); purchased deCODE Biostructures

[2] = target: T2, c-KIT D816V kinase (Seq ID no. 4) (Homo sapiens, UniProt P10721, D816V); assay: c-KIT D816V kinase Assay; assay type: biochemical; conditions: enzymatic assay, ATP 200 uM
T2 construct: D816V c-KIT (residues T544-V976 with N-terminal GST fusion, 16 nM); purchased deCODE Biostructures

[3] = target: T3, c-KIT T670I kinase (Seq ID no. 6) (Homo sapiens, UniProt P10721, T670I); assay: c-KIT T670I Kinase Assay; assay type: biochemical; conditions: enzymatic assay, ATP 200 uM
T3 construct: GST (N); TEV cleavage site (N); purchased deCODE Biostructures

[4] = target: Phospho-KIT (Tyr719) in GIST430 cells (Homo sapiens, UniProt P10721); assay: GIST430 KIT Western Blot; assay type: cell-based; conditions: 4 hours, read-out: pKIT suppression by western blot analysi GIST430
[5] = target: Phospho-KIT (Tyr719) in GIST48 cells (Homo sapiens, UniProt P10721); assay: GIST48 KIT Western Blot; assay type: cell-based; conditions: 4 hours, read-out: pKIT suppression by western blot analysi GIST48
[6] = target: T4, Phospho-KIT (Tyr719) in GIST882 cells (Homo sapiens, UniProt P10721, K642E); assay: GIST882 KIT Western Blot; assay type: cell-based; conditions: 4 hours, read-out: pKIT suppression by western blot analysi GIST 882
T4 construct: endogenous in cells; host or cells: GIST882
Experimental: GIST48, GIST430, and GIST882 cells were obtained from J. Fletcher (Brigham and Women's Hospital, Boston, Mass.). GIST T1 cells were obtained from B. Rubin (Cleveland Clinic, Cleveland, Ohio) and Professor Takahiro Taguchi (Kochi Medical School, Nankoku, Kochi, Japan). […] GIST430 cells were grown in Ham's F10 medium supplemented with 15% characterized fetal bovine serum (Invitrogen, Carlsbad, Calif.), 30 mg/L bovine pituitary extract (BD Biosciences, San Jose, Calif.), 0.5% Mito+ serum extender (BD Biosciences, San Jose, Calif.), 1 unit/mL penicillin G, 1 μg/ml streptomycin, and 0.29 mg/mL L-glutamine at 37° C., 5% CO2, 95% humidity. GIST T1 cells were grown in DMEM medium supplemented with 10% characterized fetal bovine serum (Invitrogen, Carlsbad, Calif.), 1 unit/mL penicillin G, 1 ng/ml streptomycin, and 0.29 mg/mL L-glutamine at 37° C., 5% CO2, and 95% humidity. Cells were allowed to expand until reaching 70-95% confluence at which point they were subcultured or harvested for assay use.
Two hundred fifty thousand cells were added per well in a 24-well tissue-culture treated plate. Cells were then incubated overnight at 37° C., 5% CO2, 95% humidity. Medium was aspirated, cells were washed with PBS, and serum-free RPMI1640 medium was added. A serial dilution of test compound was added to plates containing cells and plates were incubated for 4 hours at 37° C., 5% CO2, 95% humidity. Cells were washed with PBS, then lysed. Cell lysates were separated by SDS-PAGE and transferred to PVDF. Phospho-KIT (Tyr719) was detected using an antibody from Cell Signaling Technology (Beverly, Mass.), ECL Plus detection reagent (GE Healthcare, Piscataway, N.J.) and a Molecular Devices Storm 840 phosphorimager in fluorescence mode. Blots were stripped and probed for total KIT using an antibody from Santa Cruz Biotech (Santa Cruz, Calif.). IC50 values were calculated using Prism software (Graphpad, San Diego, Calif.).

T2 sequence (P10721 544-976 D816V): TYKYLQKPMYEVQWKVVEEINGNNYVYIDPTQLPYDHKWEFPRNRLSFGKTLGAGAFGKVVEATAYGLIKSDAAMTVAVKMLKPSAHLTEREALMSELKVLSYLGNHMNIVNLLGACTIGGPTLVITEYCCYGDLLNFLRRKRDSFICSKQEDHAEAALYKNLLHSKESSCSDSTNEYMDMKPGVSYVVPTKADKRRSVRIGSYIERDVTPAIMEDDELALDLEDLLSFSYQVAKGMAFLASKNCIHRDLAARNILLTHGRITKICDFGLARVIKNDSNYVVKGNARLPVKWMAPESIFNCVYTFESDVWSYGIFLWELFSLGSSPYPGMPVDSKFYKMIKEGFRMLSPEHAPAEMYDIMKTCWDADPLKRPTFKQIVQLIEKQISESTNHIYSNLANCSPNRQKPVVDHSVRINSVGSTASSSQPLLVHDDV
T1 sequence (P10721 with tags, fused parts or gaps): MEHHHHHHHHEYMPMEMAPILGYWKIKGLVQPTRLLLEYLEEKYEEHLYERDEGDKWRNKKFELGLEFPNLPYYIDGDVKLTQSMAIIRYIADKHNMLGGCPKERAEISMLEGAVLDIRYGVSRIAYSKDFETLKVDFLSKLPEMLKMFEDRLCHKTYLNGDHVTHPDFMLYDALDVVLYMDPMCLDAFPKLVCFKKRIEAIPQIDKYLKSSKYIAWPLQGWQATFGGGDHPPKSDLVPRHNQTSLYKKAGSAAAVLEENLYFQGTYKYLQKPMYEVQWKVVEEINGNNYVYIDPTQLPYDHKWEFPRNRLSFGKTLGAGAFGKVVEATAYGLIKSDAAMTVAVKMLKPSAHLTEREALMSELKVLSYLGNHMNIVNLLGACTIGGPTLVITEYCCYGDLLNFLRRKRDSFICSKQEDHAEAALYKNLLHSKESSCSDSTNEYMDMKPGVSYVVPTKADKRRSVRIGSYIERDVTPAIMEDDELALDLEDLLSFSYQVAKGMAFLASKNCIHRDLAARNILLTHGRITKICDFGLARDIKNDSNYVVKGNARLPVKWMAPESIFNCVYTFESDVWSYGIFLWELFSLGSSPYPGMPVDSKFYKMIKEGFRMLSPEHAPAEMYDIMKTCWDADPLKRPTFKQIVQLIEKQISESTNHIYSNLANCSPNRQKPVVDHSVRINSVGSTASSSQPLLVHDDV
Phospho-KIT (Tyr719) in GIST430 cells, sequence (P10721 with tags, fused parts or gaps DEL560-576/V654A, form open): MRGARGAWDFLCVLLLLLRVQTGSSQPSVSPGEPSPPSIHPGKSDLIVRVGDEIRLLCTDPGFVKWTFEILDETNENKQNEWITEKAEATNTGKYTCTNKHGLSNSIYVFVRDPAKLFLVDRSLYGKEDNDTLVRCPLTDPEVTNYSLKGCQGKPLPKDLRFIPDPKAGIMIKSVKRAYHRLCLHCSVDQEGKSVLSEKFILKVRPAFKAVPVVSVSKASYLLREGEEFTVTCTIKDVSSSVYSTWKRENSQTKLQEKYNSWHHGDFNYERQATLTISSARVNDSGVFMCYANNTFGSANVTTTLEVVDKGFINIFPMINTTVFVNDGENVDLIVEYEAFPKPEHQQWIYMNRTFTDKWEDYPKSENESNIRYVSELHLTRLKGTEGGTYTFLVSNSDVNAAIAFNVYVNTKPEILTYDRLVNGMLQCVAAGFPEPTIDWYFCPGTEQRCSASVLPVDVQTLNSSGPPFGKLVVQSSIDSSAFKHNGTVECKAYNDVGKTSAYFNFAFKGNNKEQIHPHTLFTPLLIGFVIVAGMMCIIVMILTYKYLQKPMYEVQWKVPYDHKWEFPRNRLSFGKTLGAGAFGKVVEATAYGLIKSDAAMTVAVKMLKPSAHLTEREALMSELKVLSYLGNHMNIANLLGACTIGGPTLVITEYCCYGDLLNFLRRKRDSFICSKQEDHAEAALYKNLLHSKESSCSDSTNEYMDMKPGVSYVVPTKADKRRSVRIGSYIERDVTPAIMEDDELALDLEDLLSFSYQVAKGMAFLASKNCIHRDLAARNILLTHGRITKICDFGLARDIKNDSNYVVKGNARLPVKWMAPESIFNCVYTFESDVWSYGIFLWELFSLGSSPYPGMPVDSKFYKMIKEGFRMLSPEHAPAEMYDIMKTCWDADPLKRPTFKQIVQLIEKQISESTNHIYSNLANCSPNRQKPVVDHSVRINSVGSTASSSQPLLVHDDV
T4 sequence (P10721 26-976 K642E): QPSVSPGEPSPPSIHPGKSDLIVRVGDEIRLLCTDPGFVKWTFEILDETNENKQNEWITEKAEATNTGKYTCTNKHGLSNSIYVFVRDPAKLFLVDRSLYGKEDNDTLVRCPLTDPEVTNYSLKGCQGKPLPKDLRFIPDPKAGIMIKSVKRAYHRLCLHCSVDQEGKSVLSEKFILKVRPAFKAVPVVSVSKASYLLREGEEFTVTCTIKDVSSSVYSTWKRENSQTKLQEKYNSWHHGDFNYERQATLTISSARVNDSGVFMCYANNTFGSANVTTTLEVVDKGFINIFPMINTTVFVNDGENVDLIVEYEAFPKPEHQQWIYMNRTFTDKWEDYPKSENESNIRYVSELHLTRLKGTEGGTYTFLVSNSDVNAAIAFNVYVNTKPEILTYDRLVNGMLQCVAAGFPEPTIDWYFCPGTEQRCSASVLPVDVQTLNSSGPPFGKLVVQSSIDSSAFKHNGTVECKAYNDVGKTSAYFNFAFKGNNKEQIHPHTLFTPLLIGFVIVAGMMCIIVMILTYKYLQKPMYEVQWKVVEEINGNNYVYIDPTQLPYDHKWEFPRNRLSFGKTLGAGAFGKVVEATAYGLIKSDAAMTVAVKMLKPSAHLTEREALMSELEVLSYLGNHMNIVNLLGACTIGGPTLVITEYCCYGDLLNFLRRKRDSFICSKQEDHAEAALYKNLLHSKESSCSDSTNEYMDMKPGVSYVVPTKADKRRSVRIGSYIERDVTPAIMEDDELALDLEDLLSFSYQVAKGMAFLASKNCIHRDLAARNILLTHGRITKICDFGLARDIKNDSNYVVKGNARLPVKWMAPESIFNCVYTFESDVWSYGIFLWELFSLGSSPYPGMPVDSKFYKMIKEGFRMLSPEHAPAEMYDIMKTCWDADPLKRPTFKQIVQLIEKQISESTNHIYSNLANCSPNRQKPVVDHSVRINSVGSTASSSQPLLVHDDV
T3 sequence (P10721 544-976 T670I): as the sequence (P10721 544-976 D816V) above, with T127I, V273D counted along it
Phospho-KIT (Tyr719) in GIST48 cells, sequence (P10721 whole entry V560D/D820A, form open): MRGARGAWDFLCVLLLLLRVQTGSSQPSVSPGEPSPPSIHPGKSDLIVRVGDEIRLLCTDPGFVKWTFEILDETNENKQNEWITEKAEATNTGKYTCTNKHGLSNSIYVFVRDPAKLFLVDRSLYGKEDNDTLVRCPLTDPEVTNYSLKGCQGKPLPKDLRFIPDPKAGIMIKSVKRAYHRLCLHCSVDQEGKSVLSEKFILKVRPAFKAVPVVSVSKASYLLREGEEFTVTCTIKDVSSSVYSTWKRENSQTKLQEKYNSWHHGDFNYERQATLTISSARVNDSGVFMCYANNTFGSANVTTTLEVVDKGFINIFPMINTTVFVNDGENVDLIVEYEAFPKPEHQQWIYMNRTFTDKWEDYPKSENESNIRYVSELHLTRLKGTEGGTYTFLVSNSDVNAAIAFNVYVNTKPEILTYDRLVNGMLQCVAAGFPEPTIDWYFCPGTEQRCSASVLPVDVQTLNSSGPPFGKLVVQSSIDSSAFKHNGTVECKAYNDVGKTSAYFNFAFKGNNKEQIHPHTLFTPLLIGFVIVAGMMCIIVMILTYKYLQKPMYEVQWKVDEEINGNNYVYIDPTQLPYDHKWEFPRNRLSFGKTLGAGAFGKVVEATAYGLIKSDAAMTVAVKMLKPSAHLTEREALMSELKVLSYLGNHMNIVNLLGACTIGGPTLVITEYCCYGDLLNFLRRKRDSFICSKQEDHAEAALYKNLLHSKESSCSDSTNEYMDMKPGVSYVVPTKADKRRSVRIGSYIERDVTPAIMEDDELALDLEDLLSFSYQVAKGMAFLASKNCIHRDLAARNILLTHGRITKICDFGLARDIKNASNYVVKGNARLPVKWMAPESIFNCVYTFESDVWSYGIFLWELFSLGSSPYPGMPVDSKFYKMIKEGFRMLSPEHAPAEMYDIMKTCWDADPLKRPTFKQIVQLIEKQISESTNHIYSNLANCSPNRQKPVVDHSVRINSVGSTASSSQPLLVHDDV

SMILES	IC50 [1] [nM]	IC50 [2] [nM]	IC50 [3] [nM]	IC50 [4] [nM]	IC50 [5] [nM]	IC50 [6] [nM]
CCn1c(=O)c(-c2cc(NC(=O)Nc3cc(F)cc(CN4CCN(C)CC4)c3)c(F)cc2Cl)cc2cnc(NC)cc21 [Example 88, 1-(4-chloro-5-(1-ethyl-7-(methylamino)-2-oxo-1,2-dihydro-1,6-naphthyridin-3-yl)-2-fluorophenyl)-3-(3-fluoro-5-((4-methylpiperazin-1-yl)methyl)phenyl)urea]	< 10	100 to 1000	10 to 100	10 to 100	10 to 100	100 to 1000
CCn1c(=O)c(-c2cc(NC(=O)Nc3ccccc3)c(F)cc2Cl)cc2cnc(N)cc21 [Example 21, 1-(5-(7-amino-1-ethyl-2-oxo-1,2-dihydro-1,6-naphthyridin-3-yl)-4-chloro-2-fluorophenyl)-3-phenylurea]	< 10	10 to 100	< 10	< 10	10 to 100	10 to 100
CCn1c(=O)c(-c2cc(NC(=O)Nc3cccc(CN4CCN(C)CC4)c3)c(F)cc2Cl)cc2cnc(NC)cc21 [Example 79, 1-(4-chloro-5-(1-ethyl-7-(methylamino)-2-oxo-1,2-dihydro-1,6-naphthyridin-3-yl)-2-fluorophenyl)-3-(3-((4-methylpiperazin-1-yl)methyl)phenyl)urea]	< 10	100 to 1000	10 to 100	10 to 100	10 to 100	> 1000
